Patent US20240216336A1, “CLOTRIMAZOLE AS A TREATMENT FOR IMMUNODEFICIENCY DISORDERS” (Northwestern University, priority 2020, published 2024)

Experiments:
[1] = tested on: BMDMs; test: Inflammatory cytokine mRNA expression (quantitative RT-PCR) in BMDMs; format: cell-based, mouse
Experimental: (§1) BMDMs were isolated from ΔE1HK1 and WT mice as previously reported (Rodriguez et al., 2019). Briefly, bone marrow was isolated from the tibia and femur of 8-10-week-old mice by puncturing one end of the femur and tibia with a 27g needle and placing it in a 0.5 ml tube with a hole punched in the bottom. The 0.5 ml tube containing the bone was then placed in a 1.75 ml tube and centrifuged at 5,000×g for 3.5 minutes. Bone marrow was then collected into the 1.75 ml tube and resuspend in 1 ml of RBC lysis buffer (abcam) for 1 minute and then transferred to a 50 ml tube with 4 ml RBC lysis buffer and incubated for 4 minutes. Next, 35 ml of PBS was added and centrifuged at 300×g for 5 min and supernatant was then decanted and cell pellet was re-suspended in complete RPMI with 20 ng/ml mCSF (Preprotech). Cells were counted using a hemocytometer and plated in 10 cm tissue culture plates at a density of 3-million cells/plate. Cells were cultured with 20 ng/mL mCSF to induce differentiation into BMDMs. Media was changed every 2 days and BMDMs were harvested by scraping on day 6 and plated in 12 well plates at a density of 1-million cells/well for mRNA extraction experiments. BMDMs were stimulated in the same manner as peritoneal macrophages (LPS dose for BMDMs was 200 ng/ml).
(§2) RNA was isolated from cells or tissues using RNA-STAT60 (Teltest) followed by chloroform extraction and precipitation. Reverse transcription was carried out using qScript cDNA Synthesis Kit (Quanta Bio). The resulting cDNA was amplified quantitatively using PerfeCTa SYBR Green Mix (Quanta Bio) on a 7500 Fast Real-time PCR System (Applied Biosystems). The relative gene expression was determined using differences in Ct values between gene of interest and house-keeping control genes. Complete list of primers can be found in Key Reagents Table (Table 1).

[2] = tested on: BMDMs from ΔE1HK1 mice; test: IL-1β ELISA from BMDM media; format: cell-based, mouse; conditions: 4 hrs LPS (200 ng/ml) ± 6AN (1 mM) or OT (50 μM), then 30 min ATP (2.5 mM)
Experimental: as §1, with “Cells were cultured with 20 ng/mL mCSF to induce differentiation into BMDMs. Media was changed every 2 days and BMDMs were harvested by scraping on day 6 and plated in 12 well plates at a density of 1-million cells/well for mRNA extraction experiments. BMDMs were stimulated in the same manner as peritoneal macrophages (LPS dose for BMDMs was 200 ng/ml).” left out
[…] Cell supernatant was collected and analyzed by ELISA according to manufacturer's instructions for IL-1β (DY401), IL-6 (DY406), and TNFα (DY410).
(§3) The following kits were used according to the manufacturer's instructions: Promega NADP/NADPH quantification kit (G9081) and […] (G9071); Glyceraldehyde-3-Phosphate Dehydrogenase Activity Assay kit (abcam); ELISAs for IL-1β (DY401), IL-6 […].

[3] = tested on: RAW264.7 cells; test: Inflammatory cytokine mRNA expression (quantitative RT-PCR) in RAW264.7 cells; format: cell-based, mouse; conditions: RAW264.7 cells, koningic acid, LPS
Experimental: RAW264.7 cells were a gift from Jason A. Wertheim MD, PhD. HepG2 and HEK293T cells were obtained from ATCC. RAW264.7, HEK293T, and HepG2 cells were cultured in Dulbecco's Modified Eagle's Medium (DMEM) (Corning) supplemented with 10% FBS (Atlanta Biologicals), 2 mM glutamine (HyClone), and 1 mM sodium pyruvate (Corning). […]
as §2

[4] = tested on: GAPDH; test: GAPDH activity normalized to total protein in PMs from NC and HFD mice; format: cell-based, mouse; conditions: LPS (300 ng/ml) + 1400W (50 μM) for 4 hrs
Experimental: Peritoneal macrophages were isolated from 8-10-week-old ΔE1HK1 and littermate control WT mice by peritoneal lavage as described previously (Ray and Dittel, 2010). Briefly, mice were euthanized and the peritoneal cavity was injected with PBS supplemented with 5% FBS using a 27g needle. The abdominal wall was gently agitated to dislodge peritoneal cells. Using a fresh 25g needle, the peritoneal lavage (PBS and peritoneal cells) was aspirated and collected. Cells were then centrifuged at 500 g for 10 min and re-suspended in 1 mL of complete RPMI (Corning) supplemented with 10% FBS (Atlanta Biologicals), 2 mM glutamine (HyClone), 1 mM HEPES (Corning) and 1 mM pyruvate (Corning). Stimulation with LPS (Invivogen) was performed the next day. 300 ng/ml of LPS was given to the cells for 4-6 hrs with or without the following drugs; OT (50 μM), 6-AN (1 mM), 1400W (50 μM), or CGP3466 (50 nM).
as §3

[5] = biological target: GAPDH (Mus musculus, UniProt P16858); test: GAPDH activity normalized to total protein in BMDMs; format: cell-based; design: endogenous in cells; conditions: LPS (200 ng/ml) + 1400W (50 μM)
GAPDH (Mus musculus, UniProt P16858), sequence (P16858 whole entry): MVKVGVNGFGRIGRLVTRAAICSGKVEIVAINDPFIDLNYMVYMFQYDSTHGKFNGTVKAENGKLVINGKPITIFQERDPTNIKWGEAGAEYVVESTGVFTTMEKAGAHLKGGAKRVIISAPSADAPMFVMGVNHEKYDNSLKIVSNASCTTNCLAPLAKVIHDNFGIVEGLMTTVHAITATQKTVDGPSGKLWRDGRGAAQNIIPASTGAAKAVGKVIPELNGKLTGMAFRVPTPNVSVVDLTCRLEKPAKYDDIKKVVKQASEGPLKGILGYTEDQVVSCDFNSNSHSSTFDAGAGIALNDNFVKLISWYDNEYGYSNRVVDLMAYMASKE
Experimental: as §1, with “Media was changed every 2 days and BMDMs were harvested by scraping on day 6 and plated in 12 well plates at a density of 1-million cells/well for mRNA extraction experiments. BMDMs were stimulated in the same manner as peritoneal macrophages (LPS dose for BMDMs was 200 ng/ml).” left out
as §3

[6] = tested on: ΔE1HK1 mice; test: In vivo LPS i.p. injection with 1400W: splenic mRNA and serum ELISA of inflammatory cytokines; design: species or system mouse; conditions: LPS (15 mg/kg) i.p. + 1400W (10 mg/kg) i.p.
Experimental: as §2
LPS induced sepsis model in mice was approved by Northwestern University Institutional Animal Care and Use Committee. For short term LPS induced cytokine quantification, C57/B16 mice (aged 10-12 weeks) were treated i.p. with or without 1400W (10 mg/kg) for 2 hrs prior to i.p. treatment with ultrapure 05:B55 LPS from Invivogen (15 mg/kg) i.p. for 4 hours. Whole blood samples were harvested via cardiac puncture after mice were euthanized. Cytokine production in serum from whole blood was measured using the Mouse IL-1β (DY401), IL-6 (DY406), and TNFα (DY410) ELISAs from R&D. For survival studies, Crude 05:B55 LPS (Sigma) was administrated i.p. at a sub-lethal dose of 15 mg/kg and mice were monitored over 72 hrs, every 2-4 hrs for survival and signs of deterioration to determine humane endpoints (Shrum et al., 2014).

[7] = tested on: BMDMs; test: Seahorse ECAR trace of BMDMs; format: cell-based, mouse; conditions: 5 hrs LPS (200 ng/ml) ±1400W (50 μM)
Experimental: The day before the assay, the Seahorse cartridge was placed in the XF calibrant and incubated overnight at 37° C. On the day of the assay, cells were seeded into the Seahorse 96-well plate at 15,000 cells/80 μl per well for HepG2 cells or 100,000 cells/80 μl per well for BMDMs. The plates were incubated at RT for 1 hour in glucose free complete DMEM or RPMI without bicarbonate or phenol-red to allow even distribution of cells across the well floor. Before placing the sample plates in the Seahorse XF96 Analyzer, medium volume was adjusted to 175 μl in each well. 11 mM or 25 mM glucose for HepG2 cells or BMDMs respectively, Oligomycin at 2 μM, CCCP at 10 μM, and 2DG at […] each, diluted in DMEM, were injected sequentially into each well including control wells, containing only medium, following the standard Seahorse protocol. For acute injection of LPS, the first port of the drug cartridge was replaced with LPS at 200 ng/ml.

[8] = tested on: PMs; test: IL-1β ELISA from media of PMs from NC and HFD mice; format: cell-based, mouse; conditions: LPS (300 ng/ml) 6 hrs and ATP (2.5 mM) 30 min, 1400W
[9] = tested on: GAPDH; test: GAPDH IP and TMT switch S-nitrosylation western blot in BMDMs; format: cell-based, mouse; conditions: LPS (200 ng/ml) treated BMDMs ±1400W
Experimental: GAPDH immunoprecipitation of HepG2 and BMDM cells was performed and nitrosylated cysteines were replaced with covalent binding of TMT using Pierce S-Nitrosylation western blot kit according to manufactures protocol. Briefly, free cysteines were blocked with MMTS reagent, lysates were treated with iodoTMT/ascorbate to induce replacement of unstable S-NO with stable S-TMT moiety. Western blot was then run on the TMT-replaced lysates and probed with GAPDH (dilution 1:8,000) and anti-TMT (dilution 1:1000).

[10] = 4 hr 6AN (1 mM) or OT (50 μM), ±LPS (200 ng/ml)
[11] = 16 hrs IFNγ priming, then 4 hrs LPS (200 ng/ml) ± 6AN (1 mM) or OT (50 μM)
[12] = 4 hrs LPS (200 ng/ml) + 1400W (50 μM)

NC(=O)c1ccc(N)nc1 [6AN, 6-aminonicotinamide]
increase in IL-1β mRNA levels in BMDMs of ΔE1HK1 mice [1, 10]: abolished
increase in IL-6 mRNA levels in BMDMs of ΔE1HK1 mice [1, 10]: abolished
increase in IL-1β mRNA levels in IFN-γ primed BMDMs of ΔE1HK1 mice [1, 11]: rescued
increase in IL-6 mRNA levels in IFN-γ primed BMDMs of ΔE1HK1 mice [1, 11]: rescued
IL-1β protein release (ELISA), higher release in ΔE1HK1 BMDMs [2]: reversed

CC(C)[C@H]1CC[C@@]2(CO2)[C@H]2C(=O)OCC(C(=O)O)=C[C@H]12 [koningic acid]
IL-1β mRNA expression after LPS treatment [3]: increased
IL-6 mRNA expression after LPS treatment [3]: increased
TNFα mRNA expression after LPS treatment [3]: increased

CC(N)=NCc1cccc(CN)c1.Cl.Cl [1400W]
lower GAPDH activity in PMs of HFD mice [4]: rescued
GAPDH activity of ΔE1HK1 BMDMs [5]: restored to WT levels
hyper-inflammatory response in ΔE1HK1 mice, serum ELISA IL-1β [6]: rescue
hyper-inflammatory response in ΔE1HK1 mice, serum ELISA IL-6 [6]: rescue
hyper-inflammatory response in ΔE1HK1 mice, serum ELISA TNFα [6]: rescue
hyper-inflammatory response in ΔE1HK1 mice, splenic IL-1β mRNA [6]: rescue
hyper-inflammatory response in ΔE1HK1 mice, splenic IL-6 mRNA [6]: rescue
hyper-inflammatory response in ΔE1HK1 mice, splenic TNFα mRNA [6]: rescue
differences in ECAR between ΔE1HK1 and WT BMDMs [7]: eliminated the differences
elevation in IL-1β in HFD PMs (ELISA) [8]: reversed
higher GAPDH nitrosylation in BMDMs from ΔE1HK1 mice [9]: reversible
hyper-inflammatory response of ΔE1HK1 BMDMs, IL-1β mRNA [1, 12]: reversal
hyper-inflammatory response of ΔE1HK1 BMDMs, IL-6 mRNA [1, 12]: reversal
hyper-inflammatory response of ΔE1HK1 BMDMs, TNFα mRNA [1, 12]: reversal
